The results in this text go back to patent US7960369B2, “Receptor function regulator” (Takeda Pharmaceutical Company Limited, priority 2002, dated 2011).

Assay [1] addresses T1, human-derived GPR40 (Homo sapiens, UniProt O14842).
T1 construct: expressed in transfected cells; host or cells: CHO-K1, transient transfection with lipofectamine
Nature of the assay: Reactivity of fatty acid to human-derived GPR40, intracellular calcium by FLIPR in transfected CHO-K1 cells. The format is cell-based. The following applies: for response (increase in intracellular calcium concentration) of CHO-K1 cell expressing the GPR40 receptor: added at 10^−5M-10^−6M, FLIPR, control-vector cells showed no response; for activity in intracellular calcium ion mobilization assay using CHO cell expressing GPR40 (GPR40 agonistic activity): as stated in Experimental Example 6. How it is done: Unless specifically indicated, CHO-K1 cell line was cultured using Ham's F-12 medium (Invitrogen) containing 10% fetal calf serum (Invitrogen). The day before transfection, 4.5×10^5 per 10 cm^2 of cells were seeded, and incubated at 37° C. for not less than 15 hrs in a CO2 incubator adjusted to 5% CO2 concentration. The transfection was performed using a lipofectamine reagent (Invitrogen) and according to the reagent attached method. When a 6-well plate was used for a culture plate, transfection was performed in the following manner. First two 1.5 ml volume tubes were prepared, and 100 μl of Opti-MEM-I medium (Invitrogen) was dispensed. Then, […] of an expression vector was added to one tube and 6 μl of a lipofectamine reagent was added to the other tube. They were mixed and stood still at room temperature for 20 min. A mixed solution for transfection containing this solution and Opti-MEM-I medium (800 μl) was added to CHO-K1 cell previously washed with Opti-MEM-I medium, and incubated in a CO2 incubator for 6 hrs. The incubated cells were rinsed with PBS (Invitrogen), detached with 0.05% trypsin-EDTA solution (Invitrogen), recovered by centrifugation. The obtained cells were counted, diluted such that 5×10^4 cells were contained per 200 μl of the medium, dispensed to black walled 96-well plate (Costar) at 200 μl per well, incubated overnight in a CO2 incubator. Various test samples were added to CHO-K1 cells transiently expressing the receptor by the above-mentioned transfection step, and changes in the intracellular calcium concentration then was measured using FLIPR (Molecular Device). For measurement of changes in intracellular calcium concentration by FLIPR, the following pretreatment was applied. First, an assay buffer for adding fluorescence dye Fluo-3AM (DOJIN) to the cell, or washing the cell immediately before FLIPR assay was prepared. To a solution (hereinafter HBSS/HEPES solution) obtained by adding 20 ml of 1M HEPES (pH 7.4) (DOJIN) to 1000 ml of HBSS (Invitrogen) was added a solution (10 ml) obtained by dissolving probenecid (710 mg, Sigma) in 1N NaOH (5 ml) and adding and mixing with HBSS/HEPES solution (5 ml) and the obtained solution was used as an assay buffer. Then, Fluo-3AM (50 μg) was dissolved in 21 μl of DMSO (DOJIN), and an equal amount of 20% pluronic acid (Molecular Probes) was added. The mixture was added to an assay buffer (10.6 ml) supplemented with 105 μl of fetal calf serum to give a fluorescence dye solution. The medium of the CHO-KL cell after transfection treatment was removed, a fluorescence dye solution was immediately dispensed at 100 μl per well and incubated in a CO2 incubator for 1 hr to incorporate the fluorescence dye into the cell. The incubated cells were washed with the above-mentioned assay buffer and set on FLIPR. The test sample to be added to receptor expressing CHO-KL cell was prepared using the assay buffer and simultaneously set on FLIPR. After the above-mentioned pretreatment, changes in the intracellular calcium concentration after addition of various test samples were measured by FLIPR.

Assay [2] deals with T2, human GPR40 (Homo sapiens, UniProt O14842).
T2 construct: expressed in transfected cells; host or cells: CHO cell line CHO-hGPR40 No. 104 (pAKKO-111 vector)
T2 sequence (O14842 whole entry): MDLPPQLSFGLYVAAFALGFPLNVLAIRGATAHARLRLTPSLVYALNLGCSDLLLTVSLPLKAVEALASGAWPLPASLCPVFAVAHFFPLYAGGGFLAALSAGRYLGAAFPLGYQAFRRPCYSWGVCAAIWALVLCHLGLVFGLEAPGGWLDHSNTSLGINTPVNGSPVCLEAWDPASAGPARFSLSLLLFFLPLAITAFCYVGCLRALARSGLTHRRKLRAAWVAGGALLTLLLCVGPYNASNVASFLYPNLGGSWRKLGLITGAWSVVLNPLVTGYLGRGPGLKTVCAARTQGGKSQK
The assay is described as follows: Effect of regulation of GPR40 receptor function (agonistic effect), intracellular calcium by FLIPR. It counts as cell-based. The following applies: CHO cell line (No. 104) expressing human GPR40, fluorescence intensity at 30 sec after start of reaction. How it is done: CHO cell line (No. 104) made to express human GPR40 was diluted such that 3×10^4 cells/100 μL were contained, dispensed to a black walled 96-well plate (Costar) at 100 μL per well, and incubated overnight in a CO2 incubator. The changes in the intracellular calcium concentration were measured using FLIPR (Molecular Device). The method is described in the following.
Fluo-3AM (DOJIN) (50 μg) was dissolved in 21 μl DMSO (DOJIN), and an equal amount of 20% pluronic acid (Molecular Probes) was added and mixed, and the mixture was added to 10.6 ml of an assay buffer [prepared by adding 20 ml of 1M HEPES (pH 7.4) (DOJIN) to 1 L of HBSS (Invitrogen), and adding a mixed solution (10 ml) obtained by dissolving probenecid (Sigma) (710 mg) in 1N NaOH (5 ml) and adding and mixing with the above-mentioned HBSS/HEPES solution (5 ml)] supplemented with 105 μl of fetal calf serum to give a fluorescence dye solution. The medium in the cell plate was removed, a fluorescence dye solution was immediately dispensed at 100 μl per well, and incubated in a CO2 incubator for 1 hr to incorporate fluorescence dye into the cell. The incubated cells were washed with the above-mentioned assay buffer. The compound to be added to the cell was diluted with the assay buffer to each concentration and dispensed to a test sample plate. After the above-mentioned pretreatment, changes in the intracellular calcium concentration after addition of the compound was measured by FLIPR, and the agonistic effect was examined. EC50 value was calculated from a dose response curve based on the changes in the fluorescence intensity value at 30 sec after the start of the reaction.

For assay [3], the system named is mouse pancreatic β cell line MIN6. Nature of the assay: Promotion of insulin secretion from MIN6 (insulin immunoassay). It counts as cell-based. The following applies: MIN6, KRBH with 22 mM glucose, 90 min. How it is done:
(§1) Mouse pancreatic β cell line MIN6 cultured in a flask was detached with PBS containing 2.5 mM EDTA, and seeded and incubated in a 96 well plate for 2 days. The medium used was obtained by adding 15% fetal bovine serum (ThermoTrace), […] 2-mercaptoethanol (Invitrogen), 20 mM HEPES pH 7.3, 100 U/ml penicillin and 100 μg/ml streptomycin to Dulbecco's Modified Eagle Medium (DMEM, Invitrogen) containing 4.5 g/l of glucose. The cells were washed twice with modified Krebs-Ringer bicarbonate buffer (KRBH, 116 mM NaCl, 4.7 mM KCl, 1.2 mM KH2PO4, 1.2 mM MgSO4, 2.5 mM CaCl2, 25 mM NaHCO3, 24 mM HEPES pH 7.3) and preincubated at 37° C. under 5% CO2 conditions for 30 min. Fatty acid diluted and prepared with a buffer obtained by adding 22 mM glucose to the above-mentioned KRBH was added to the cell after preincubation and the cells were incubated at 37° C. under 5% CO2 conditions for 90 min. After incubation, the cell supernatant was recovered and cryopreserved. The insulin content of the supernatant was measured using a commercially available insulin immunoassay kit (Amersham Pharmacia Biotech).
as §1, with “(KBH,” for “(KRBH,”, “The compound” for “Fatty acid”

In assay [4] the test system is siRNA-introduced MIN6 cell. The assay is described as follows: Insulin secretion enhancing activity of fatty acid in siRNA-introduced MIN6. It counts as cell-based, mouse. How it is done:
The expression amount of mouse GPR40-GFP was detected by the following enzyme immunoassay. The culture supernatant was discarded, washed with HBSS (Invitrogen), fixed with 0.01% glutaraldehyde (Wako Pure Chemical Industries, Ltd.) for 5 min., and blocked with PBS (TAKARA SHUZO) containing 2% BSA. 500-fold diluted anti-GFP monoclonal antibody 3E6 (NIPPON GENE CO., LTD.) was added and the cells were incubated at room temperature for 2 hrs., washed and 500-fold diluted HRP-labeled anti-mouse IgG antibody (ICN) was added, and the cells were incubated at room temperature for 2 hrs. After washing, TMB microwell peroxydase substrate (Funakoshi) was added and, after incubation for 30 min., sulfuric acid was added to stop the color developing reaction, and the absorbance at 450 nm was measured.
as §1
Insulin secretion enhancing activity in MIN6 cell, into which m40i103 was introduced using HVJ Envelope VECTOR KIT GenomONE based on the method of Experimental Example 5, was examined. The insulin secretion enhancing activity by fatty acid was examined by the method of Experimental Example 6.

T1 sequence (O14842 whole entry): as above

As for eicosatrienoic acid, the “response (increase in intracellular calcium concentration) of CHO-K1 cell expressing the GPR40 receptor” value in assay [1] is on record as “specifically responds”.
The same measure, in the same setting: next, `CCCCCCCCCCCC(=O)O` [lauric acid]: “specifically responds”.
The same measure, in the same setting: the same measure for `CC(C)=CCCC(C)=CCCC(C)=CC(=O)O` [farnesoic acid]: “specifically responds”.
`O=C(O)CCc1ccc(OC2CCCc3ccccc32)cc1` (stereo not shown) [Example 2, 4-[(1,2,3,4-tetrahydronaphthalen-1-yl)oxy]benzenepropanoic acid]: the EC50 in assay [2] turned out to be 170 nM.
As for `O=C(O)CCc1ccc(OCCCc2ccccc2)cc1` [Reference Example 6, 4-(3-phenylpropoxy)benzenepropanoic acid], the EC50 in assay [2] turned out to be 460 nM.
With `CCCCC/C=C\C/C=C\C/C=C\C/C=C\CCCCCC(=O)O` [adrenic acid], the “response (increase in intracellular calcium concentration) of CHO-K1 cell expressing the GPR40 receptor” value in assay [1] is on record as “specifically responds”.
Take `CCCCC/C=C\C/C=C\CCCCCCCC(=O)OC` [methyl linolate]: in assay [3], the “insulin secretion enhancing activity” value is listed as “did not show a significant insulin secretion enhancing activity”. The “activity in intracellular calcium ion mobilization assay using CHO cell expressing GPR40 (GPR40 agonistic activity)” value in assay [1] was “no GPR40 agonistic activity”.
`CN(Cc1ccc(C(=O)Nc2ccc(CCC(=O)O)cc2)cc1)c1nc(-c2ccccc2)cs1` [Reference Example 15, 4-[[4-[[methyl(4-phenyl-2-thiazolyl)amino]methyl]benzoyl]amino]benzenepropanoic acid]: the EC50 in assay [2] worked out at 1200 nM.
For `CCCCCC#CCC#CCC#CCC#CCCCC(=O)O` [5.8.11.14-eicosatetraynoic acid], the “response (increase in intracellular calcium concentration) of CHO-K1 cell expressing the GPR40 receptor” value in assay [1] is “specifically responds”.
Same read-out and setting: the same measure for eicosadienoic acid: “specifically responds”.
In the case of `CCCC(=O)O` [butyric acid], the “insulin secretion enhancing activity” value in assay [3] was “did not show a significant insulin secretion enhancing activity”. Also, in assay [1], the “activity in intracellular calcium ion mobilization assay using CHO cell expressing GPR40 (GPR40 agonistic activity)” value is “no GPR40 agonistic activity”.
For `CC/C=C\C/C=C\C/C=C\CCCCCCCC(=O)O` [α-linolenic acid] the same measures were “significant insulin secretion enhancing activity” and “remarkable activity”.
In the case of `CCCCCCCCC#CCC#CCC#CCCCC(=O)O` [5.8.11-eicosatriynoic acid], in assay [1], the “response (increase in intracellular calcium concentration) of CHO-K1 cell expressing the GPR40 receptor” value is “specifically responds”.
As for `O=C(O)CCc1ccc(OCc2ccc(-c3ccccc3)cc2)cc1` [Example 7, 4-([1,1′-biphenyl]-4-ylmethoxy)benzenepropanoic acid], the EC50 in assay [2] is 130 nM.
Same read-out and setting: the same measure for `O=C(O)CCc1ccc(OCc2ccc(OCc3ccccc3)cc2)cc1` [Example 6, 4-[[4-(phenylmethoxy)phenyl]methoxy]benzenepropanoic-acid]: 160 nM.
Regarding `O=C(O)CCc1ccc(OCc2ccccc2)cc1` [Reference Example 2, 4-(phenylmethoxy)benzenepropanoic acid], in assay [2], the EC50 came to 320 nM.
For docosatrienoic acid, in assay [1], the “response (increase in intracellular calcium concentration) of CHO-K1 cell expressing the GPR40 receptor” value is recorded as “specifically responds”.
`CCCCC/C=C\C/C=C\CCCCCCCC(=O)O` [linoleic acid]: the “insulin secretion enhancing activity” value in assay [3] is listed as “significant insulin secretion enhancing activity”. For the same compound, the “response (increase in intracellular calcium concentration) of CHO-K1 cell expressing the GPR40 receptor” value in assay [1] is “specifically responds”. In addition, the “activity in intracellular calcium ion mobilization assay using CHO cell expressing GPR40 (GPR40 agonistic activity)” value in assay [1] is listed as “remarkable activity”. Besides, the “insulin secretion enhancing activity of fatty acid” value in assay [4] (MIN6 into which GPR40 specific siRNA m40i103 was introduced) is given as “no longer showed insulin secretion enhancing activity”; in assay [4] (MIN6 into which random sequence Scramble II duplex siRNA was introduced), “retention of the insulin secretion enhancing activity”.
Regarding `CCCCC/C=C\C/C=C\C/C=C\C/C=C\CCCC(=O)O` [arachidonic acid], in assay [3], the “insulin secretion enhancing activity” value was “significant insulin secretion enhancing activity”. In assay [1], the “response (increase in intracellular calcium concentration) of CHO-K1 cell expressing the GPR40 receptor” value is reported as “specifically responds” and the “activity in intracellular calcium ion mobilization assay using CHO cell expressing GPR40 (GPR40 agonistic activity)” value is on record as “remarkable activity”.
